# In patent publication US9326506B2, “Preparation method, agricultural composition and applications of natural brassinolide analogs” (CHENGDU NEWSUN CROPSCIENCE CO., LTD, priority 2012, dated 2016):
# Test system: rice
# Test: Low temperature assay on rice seedlings
# Type: in vivo
# Procedure: According to a low temperature assay, we measured parameters including plant height, number of leaf, area of leaf, number of tiller, weight of root at low temperature to completely determine effects of the natural brassinolide analogues on the resistance to low temperature of a plant.
# The natural brassinolide analogues, BR1, BR2, BR3, BR4, BR5 and BR6, used herein, were those prepared by the method of Example 1. Respectively the analogues were dissolved into 95% (V/V) ethanol solution, and then diluted with pure water to 1 mg/L, 0.1 mg/L, 0.01 mg/L, 0.001 mg/L and 0.0001 mg/L. In addition, pure water was used as a control.
# After rice seeds were disinfected by using 5% sodium hypochlorite solution treatment, they were rinsed with distilled water until their pH>7, placed into a petri dish in a dark incubator, and cultured by using water at 30° C.±2° C. for 9 days. Then respectively the nine-day-old etiolated seedlings of rice were immersed in the above solutions containing different concentrations of the natural brassinolide analogues or pure water, and cultured at the temperature of 1° C., 2° C., 3° C., 4° C. and 5° C. for 24 hr. The parameters including plant height, area of leaf and weight of root after 3, 6, 9 and 12 days and number of leaf and number of tiller after 12 days were measured.
compound,measurement,setting,value
CC(C)[C@H](C)[C@@H](O)[C@H](O)[C@@H](C)[C@H]1CCC2C3COC(=O)C4C[C@H](O)[C@H](O)C[C@]4(C)C3CC[C@@]21C (stereo partly drawn) [BR1],Area of leaf,"0.0001 mg/l, 1 °C, 3 days",10 cm^2
same,Height,"0.0001 mg/l, 1 °C, 3 days",7.1 cm
same,Weight of root,"0.0001 mg/l, 1 °C, 3 days",2.8 g
same,Area of leaf,"0.0001 mg/l, 1 °C, 6 days",11.2 cm^2
same,Height,"0.0001 mg/l, 1 °C, 6 days",7.2 cm
same,Weight of root,"0.0001 mg/l, 1 °C, 6 days",3.1 g
same,Area of leaf,"0.0001 mg/l, 1 °C, 9 days",12.4 cm^2
same,Height,"0.0001 mg/l, 1 °C, 9 days",7.3 cm
same,Weight of root,"0.0001 mg/l, 1 °C, 9 days",3.4 g
same,Area of leaf,"0.0001 mg/l, 1 °C, 12 days",13 cm^2
same,Height,"0.0001 mg/l, 1 °C, 12 days",7.4 cm
same,Number of leaf,"0.0001 mg/l, 1 °C, 12 days",3
same,Number of tiller,"0.0001 mg/l, 1 °C, 12 days",3
same,Weight of root,"0.0001 mg/l, 1 °C, 12 days",3.9 g
same,Area of leaf,"0.0001 mg/l, 2 °C, 3 days",10.2 cm^2
same,Height,"0.0001 mg/l, 2 °C, 3 days",7.1 cm
same,Weight of root,"0.0001 mg/l, 2 °C, 3 days",2.8 g
same,Area of leaf,"0.0001 mg/l, 2 °C, 6 days",11.7 cm^2
same,Height,"0.0001 mg/l, 2 °C, 6 days",7.2 cm
same,Weight of root,"0.0001 mg/l, 2 °C, 6 days",3.0 g
same,Area of leaf,"0.0001 mg/l, 2 °C, 9 days",12.6 cm^2
same,Height,"0.0001 mg/l, 2 °C, 9 days",7.3 cm
same,Weight of root,"0.0001 mg/l, 2 °C, 9 days",3.2 g
same,Area of leaf,"0.0001 mg/l, 2 °C, 12 days",13 cm^2
same,Height,"0.0001 mg/l, 2 °C, 12 days",7.5 cm
same,Number of leaf,"0.0001 mg/l, 2 °C, 12 days",3
same,Number of tiller,"0.0001 mg/l, 2 °C, 12 days",3
same,Weight of root,"0.0001 mg/l, 2 °C, 12 days",3.9 g
same,Area of leaf,"0.0001 mg/l, 3 °C, 3 days",10.4 cm^2
same,Height,"0.0001 mg/l, 3 °C, 3 days",7.1 cm
same,Weight of root,"0.0001 mg/l, 3 °C, 3 days",2.5 g
same,Area of leaf,"0.0001 mg/l, 3 °C, 6 days",12 cm^2
same,Height,"0.0001 mg/l, 3 °C, 6 days",7.2 cm
same,Weight of root,"0.0001 mg/l, 3 °C, 6 days",2.6 g
same,Area of leaf,"0.0001 mg/l, 3 °C, 9 days",12.6 cm^2
same,Height,"0.0001 mg/l, 3 °C, 9 days",7.5 cm
same,Weight of root,"0.0001 mg/l, 3 °C, 9 days",2.9 g
same,Area of leaf,"0.0001 mg/l, 3 °C, 12 days",13.2 cm^2
same,Height,"0.0001 mg/l, 3 °C, 12 days",7.6 cm
same,Number of leaf,"0.0001 mg/l, 3 °C, 12 days",3
same,Number of tiller,"0.0001 mg/l, 3 °C, 12 days",2
same,Weight of root,"0.0001 mg/l, 3 °C, 12 days",2.9 g
same,Area of leaf,"0.0001 mg/l, 4 °C, 3 days",10.6 cm^2
same,Height,"0.0001 mg/l, 4 °C, 3 days",7.1 cm
same,Weight of root,"0.0001 mg/l, 4 °C, 3 days",2.5 g
same,Area of leaf,"0.0001 mg/l, 4 °C, 6 days",12.2 cm^2
same,Height,"0.0001 mg/l, 4 °C, 6 days",7.3 cm
same,Weight of root,"0.0001 mg/l, 4 °C, 6 days",2.6 g
same,Area of leaf,"0.0001 mg/l, 4 °C, 9 days",13 cm^2
same,Height,"0.0001 mg/l, 4 °C, 9 days",7.5 cm
same,Weight of root,"0.0001 mg/l, 4 °C, 9 days",2.9 g
same,Area of leaf,"0.0001 mg/l, 4 °C, 12 days",13.4 cm^2
same,Height,"0.0001 mg/l, 4 °C, 12 days",7.7 cm
same,Number of leaf,"0.0001 mg/l, 4 °C, 12 days",3
same,Number of tiller,"0.0001 mg/l, 4 °C, 12 days",2
same,Weight of root,"0.0001 mg/l, 4 °C, 12 days",2.9 g
same,Area of leaf,"0.0001 mg/l, 5 °C, 3 days",10.6 cm^2
same,Height,"0.0001 mg/l, 5 °C, 3 days",7.2 cm
same,Weight of root,"0.0001 mg/l, 5 °C, 3 days",2.6 g
same,Area of leaf,"0.0001 mg/l, 5 °C, 6 days",12.4 cm^2
same,Height,"0.0001 mg/l, 5 °C, 6 days",7.4 cm
same,Weight of root,"0.0001 mg/l, 5 °C, 6 days",2.8 g
same,Area of leaf,"0.0001 mg/l, 5 °C, 9 days",13.6 cm^2
same,Height,"0.0001 mg/l, 5 °C, 9 days",7.5 cm
same,Weight of root,"0.0001 mg/l, 5 °C, 9 days",2.9 g
same,Area of leaf,"0.0001 mg/l, 5 °C, 12 days",14 cm^2
same,Height,"0.0001 mg/l, 5 °C, 12 days",7.8 cm
same,Number of leaf,"0.0001 mg/l, 5 °C, 12 days",3
same,Number of tiller,"0.0001 mg/l, 5 °C, 12 days",2
same,Weight of root,"0.0001 mg/l, 5 °C, 12 days",3.0 g
same,Area of leaf,"0.001 mg/l, 1 °C, 3 days",10.1 cm^2
same,Height,"0.001 mg/l, 1 °C, 3 days",6.9 cm
same,Weight of root,"0.001 mg/l, 1 °C, 3 days",2.8 g
same,Area of leaf,"0.001 mg/l, 1 °C, 6 days",11.3 cm^2
same,Height,"0.001 mg/l, 1 °C, 6 days",7.1 cm
same,Weight of root,"0.001 mg/l, 1 °C, 6 days",3.1 g
same,Area of leaf,"0.001 mg/l, 1 °C, 9 days",12.6 cm^2
same,Height,"0.001 mg/l, 1 °C, 9 days",7.3 cm
same,Weight of root,"0.001 mg/l, 1 °C, 9 days",3.4 g
same,Area of leaf,"0.001 mg/l, 1 °C, 12 days",13 cm^2
same,Height,"0.001 mg/l, 1 °C, 12 days",7.3 cm
same,Number of leaf,"0.001 mg/l, 1 °C, 12 days",3
same,Number of tiller,"0.001 mg/l, 1 °C, 12 days",3
same,Weight of root,"0.001 mg/l, 1 °C, 12 days",3.9 g
same,Area of leaf,"0.001 mg/l, 2 °C, 3 days",10.3 cm^2
same,Height,"0.001 mg/l, 2 °C, 3 days",6.9 cm
same,Weight of root,"0.001 mg/l, 2 °C, 3 days",2.8 g
